From ChEMBL document CHEMBL4118160, “Heterocycles: Versatile control elements in bioactive macrocycles” (Bioorg Med Chem, 2018)
pIC50: −log10 of the molar value.

Target: Integrin alpha-V/beta-3 (Homo sapiens, UniProt P05106+P06756)
Assay: Inhibition of vitronectin binding to alphaVbeta3 integrin (unknown origin) measured after 3 hrs
Assay type: protein-complex assay

Sequence of Integrin alpha-V/beta-3 (P05106 27-788 limits assumed): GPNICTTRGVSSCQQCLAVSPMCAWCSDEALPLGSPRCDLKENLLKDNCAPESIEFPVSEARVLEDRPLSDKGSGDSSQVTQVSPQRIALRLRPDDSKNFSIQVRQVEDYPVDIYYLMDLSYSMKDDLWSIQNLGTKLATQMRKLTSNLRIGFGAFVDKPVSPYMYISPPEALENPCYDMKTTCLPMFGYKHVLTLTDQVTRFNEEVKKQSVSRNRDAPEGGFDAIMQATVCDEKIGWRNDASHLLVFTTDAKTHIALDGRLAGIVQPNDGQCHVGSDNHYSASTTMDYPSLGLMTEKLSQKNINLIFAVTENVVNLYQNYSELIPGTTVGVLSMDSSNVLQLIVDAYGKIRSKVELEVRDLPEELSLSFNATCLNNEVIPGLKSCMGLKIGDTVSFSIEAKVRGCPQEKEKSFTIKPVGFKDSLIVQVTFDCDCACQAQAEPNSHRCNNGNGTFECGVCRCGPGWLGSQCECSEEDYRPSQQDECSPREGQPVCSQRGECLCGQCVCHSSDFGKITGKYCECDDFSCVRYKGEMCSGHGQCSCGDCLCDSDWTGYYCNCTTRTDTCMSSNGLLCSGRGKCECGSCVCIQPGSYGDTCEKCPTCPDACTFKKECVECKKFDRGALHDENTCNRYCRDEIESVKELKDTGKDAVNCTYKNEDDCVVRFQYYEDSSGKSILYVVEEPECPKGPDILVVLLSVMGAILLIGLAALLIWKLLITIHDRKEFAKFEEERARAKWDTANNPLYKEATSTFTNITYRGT
Sequence of Integrin alpha-V/beta-3 (P06756 31-889 limits assumed): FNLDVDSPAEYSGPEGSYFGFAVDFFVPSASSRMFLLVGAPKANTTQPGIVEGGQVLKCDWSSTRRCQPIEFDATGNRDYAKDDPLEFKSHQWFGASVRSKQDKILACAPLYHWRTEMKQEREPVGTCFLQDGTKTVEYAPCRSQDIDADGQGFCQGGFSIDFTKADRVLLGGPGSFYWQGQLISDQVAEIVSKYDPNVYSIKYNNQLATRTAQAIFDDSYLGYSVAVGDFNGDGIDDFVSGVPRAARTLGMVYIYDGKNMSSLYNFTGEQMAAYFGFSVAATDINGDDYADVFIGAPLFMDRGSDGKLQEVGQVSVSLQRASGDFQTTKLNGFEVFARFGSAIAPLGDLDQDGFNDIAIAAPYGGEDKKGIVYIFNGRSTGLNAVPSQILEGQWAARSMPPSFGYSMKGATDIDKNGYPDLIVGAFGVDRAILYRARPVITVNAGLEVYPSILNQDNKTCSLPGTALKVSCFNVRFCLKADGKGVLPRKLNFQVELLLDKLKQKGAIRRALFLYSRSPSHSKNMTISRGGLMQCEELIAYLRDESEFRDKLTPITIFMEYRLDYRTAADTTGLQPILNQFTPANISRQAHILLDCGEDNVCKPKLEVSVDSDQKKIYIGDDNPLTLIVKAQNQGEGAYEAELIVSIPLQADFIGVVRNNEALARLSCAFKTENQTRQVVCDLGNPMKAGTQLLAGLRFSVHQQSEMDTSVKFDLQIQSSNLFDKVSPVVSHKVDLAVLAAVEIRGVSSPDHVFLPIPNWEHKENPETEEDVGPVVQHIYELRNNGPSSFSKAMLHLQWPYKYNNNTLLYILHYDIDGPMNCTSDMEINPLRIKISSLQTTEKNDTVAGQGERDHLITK
Sequence of Integrin alpha-V/beta-3 (P06756 891-1048 limits assumed): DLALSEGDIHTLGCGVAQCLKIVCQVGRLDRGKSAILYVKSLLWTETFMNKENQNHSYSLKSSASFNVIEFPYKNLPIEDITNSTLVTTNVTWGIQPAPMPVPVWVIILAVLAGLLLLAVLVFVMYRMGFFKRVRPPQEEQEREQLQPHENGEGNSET

Row | pIC50 | Compound
1 | ≥ 6.82 | N=C(N)NCCC[C@H]1NC(=O)CNC(=O)[C@@H](CC(=O)O)CN[C@@H]2O[C@H](C1=O)[C@@H](OCc1ccccc1)[C@H](OCc1ccccc1)[C@H]2OCc1ccccc1
2 | ≥ 6.82 | N=C(N)NCCC[C@H]1NC(=O)CNC(=O)[C@@H](CC(=O)O)CN[C@H]2O[C@H](C1=O)[C@@H](OCc1ccccc1)[C@H](OCc1ccccc1)[C@H]2OCc1ccccc1
